Measurements reported in patent US8080571B2, “Tricyclic angiotensin II agonists” (Vicore Pharma AB, priority 2005, dated 2011).

Test system: duodenal mucosa
Assay: Test C: duodenal mucosal alkaline secretion assay
Assay type: in vivo, rat
Settings: co-administration of the AT2 receptor antagonist with title compounds
Excerpt: Duodenal Mucosal Alkaline Secretion Assay
Compounds were exposed to the duodenal mucosa in barbiturate-anaesthetised rats prepared for in situ titration of duodenal mucosal alkaline secretion, according to the methodology described by Flemström et al in Am. J. Physiol. (1982) 243, G348.

For Cc1cc(Cn2cnc3c2C[C@@H](C(=O)O)N(C(=O)C(c2ccccc2)c2ccccc2)C3)ccc1N(C)C [PD123319], the “effect on the stimulation of mucosal alkalisation by the title compounds” value was “blocked”.
